In patent US20250353848A1, “HETEROCYCLIC PAD4 INHIBITORS” (Celgene Corporation, priority 2022, published 2025):

Experiments:
hPAD4 enzyme [1] = molecular target: T1, hPAD4 enzyme (Homo sapiens, UniProt Q9UM07); assay: RFMS Assay 1 (rapid-fire mass spectrum PAD4 inhibition assay, BAEE substrate); assay type: biochemical; conditions: 5 nM hPAD4 enzyme, 250 μM BAEE, 30 mins compound and enzyme preincubation at 37° C., 90 min enzyme/substrate reaction
Summary of the method: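 Human PAD4 (5 nM) preincubated 30 min at 37 °C with compound (top 50 μM, 0.5% DMSO), then 250 μM BAEE for 90 min at 37 °C in pH 7.5 HEPES with 50 μM calcium, 5 μM TPEN, 1 mM DTT. Product derivatized with phenyl glyoxal; citrulline product quantified by RapidFire MS/MS MRM, normalized to internal standard.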

hPAD4 enzyme [2] = molecular target: T1, hPAD4 enzyme; assay: RFMS Assay 2 (rapid-fire mass spectrum PAD4 inhibition assay, peptide substrate); assay type: biochemical; conditions: 35 nM recombinant human PAD4, substrate TSTGGRQGSHH, room temperature for 30 minutes; read-out: human PAD4 (hPAD4) IC50, RFMS Assay 2
Summary of the method: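 Recombinant human PAD4 (35 nM) reacted 30 min at room temperature with 500 µM peptide TSTGGRQGSHH in pH 7.4 HEPES, 200 mM NaCl, 2 mM CaCl2, 5 mM DTT, 1.2% DMSO. Quenched with formic acid; substrate and citrullinated product quantified by RapidFire MRM mass spectrometry.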

T1 sequence (Q9UM07 whole entry): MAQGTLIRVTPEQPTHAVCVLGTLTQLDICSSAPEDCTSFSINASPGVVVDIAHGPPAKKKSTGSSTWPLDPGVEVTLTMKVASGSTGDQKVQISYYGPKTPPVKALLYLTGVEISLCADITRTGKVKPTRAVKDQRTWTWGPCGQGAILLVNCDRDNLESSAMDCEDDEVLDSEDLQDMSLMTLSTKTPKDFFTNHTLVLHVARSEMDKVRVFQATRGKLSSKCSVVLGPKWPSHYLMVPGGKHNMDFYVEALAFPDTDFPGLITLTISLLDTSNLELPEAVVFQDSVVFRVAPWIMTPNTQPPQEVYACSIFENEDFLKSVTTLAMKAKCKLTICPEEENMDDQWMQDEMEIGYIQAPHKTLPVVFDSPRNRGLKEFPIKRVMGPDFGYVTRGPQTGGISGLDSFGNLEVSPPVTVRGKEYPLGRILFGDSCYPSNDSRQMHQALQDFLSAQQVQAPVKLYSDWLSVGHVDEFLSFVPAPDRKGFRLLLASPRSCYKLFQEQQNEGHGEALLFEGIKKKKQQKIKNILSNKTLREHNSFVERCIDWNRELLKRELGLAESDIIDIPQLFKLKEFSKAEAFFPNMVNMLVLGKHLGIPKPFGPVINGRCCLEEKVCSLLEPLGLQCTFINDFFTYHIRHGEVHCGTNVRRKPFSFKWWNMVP

| Structure (SMILES) | IC50 (hPAD4 enzyme [1]) [nM] | IC50 (hPAD4 enzyme [2]) [nM] |
| --- | --- | --- |
| C[C@H](Cn1ccnc1)Oc1cccc2cc(-c3nc4cc5c(nc4n3C)CCN(C[C@H](N)CF)C5=O)n(CC3CC3)c12 [Example 62, 2-(7-(((R)-1-(1H-imidazol-1-yl)propan-2-yl)oxy)-1-(cyclopropylmethyl)-1H-indol-2-yl)-7-((S)-2-amino-3-fluoropropyl)-3-methyl-3,5,6,7-tetrahydro-8H-imidazo[4,5-b][1,6]naphthyridin-8-one] | 11 to 100 | 101 to 500 |
| Cn1c(-c2cc3cccc(OC(F)Cn4cncc4F)c3n2CC2CC2)nc2cc3c(nc21)CCN(C[C@H](N)CF)C3=O (single isomer, unassigned) [Example 75b] | ≤ 10 | 11 to 100 |
| Cc1ncoc1CCOc1cccc2cc(-c3nc4cc5c(nc4n3C)CCN(C[C@H](N)CF)C5=O)n(CC3CC3)c12 [Example 48, (S)-7-(2-amino-3-fluoropropyl)-2-(1-(cyclopropylmethyl)-7-(2-(4-methyloxazol-5-yl)ethoxy)-1H-indol-2-yl)-3-methyl-3,5,6,7-tetrahydro-8H-imidazo[4,5-b][1,6]naphthyridin-8-one] | 11 to 100 | 101 to 500 |
| Cn1c(-c2cc3cccc(OCCn4ccnc4)c3n2CC2CC2)nc2cc3c(nc21)CCN(C[C@H](N)CF)C3=O [Example 44, (S)-2-(7-(2-(1H-imidazol-1-yl)ethoxy)-1-(cyclopropylmethyl)-1H-indol-2-yl)-7-(2-amino-3-fluoropropyl)-3-methyl-3,5,6,7-tetrahydro-8H-imidazo[4,5-b][1,6]naphthyridin-8-one] | ≤ 10 | 11 to 100 |
| Cn1c(-c2cc3cccc(OCCn4cnc(F)c4)c3n2CC2CC2)nc2cc3c(nc21)CCN(C[C@H](N)CF)C3=O [Example 70, (S)-7-(2-amino-3-fluoropropyl)-2-(1-(cyclopropylmethyl)-7-(2-(4-fluoro-1H-imidazol-1-yl)ethoxy)-1H-indol-2-yl)-3-methyl-3,5,6,7-tetrahydro-8H-imidazo[4,5-b][1,6]naphthyridin-8-one] | ≤ 10 | 11 to 100 |
| Cn1c(-c2cc3cccc(OCC(C)(C)n4ccnc4)c3n2CC2CC2)nc2cc3c(nc21)CCN(C[C@H](N)CF)C3=O [Example 96, (S)-2-(7-(2-(1H-imidazol-1-yl)-2-methylpropoxy)-1-(cyclopropylmethyl)-1H-indol-2-yl)-7-(2-amino-3-fluoropropyl)-3-methyl-3,5,6,7-tetrahydro-8H-imidazo[4,5-b][1,6]naphthyridin-8-one] | ≤ 10 | 101 to 500 |
